According to article PMC9505425, “Targeting of the Mitochondrial TET1 Protein by Pyrrolo[3,2-b]pyrrole Chelators” (International Journal of Molecular Sciences, 2022):

Molecular target: T1, recombinant His-tagged TET1 protein (Homo sapiens, UniProt Q8NFU7)
T1 construct: purchased Active Motif, Carlsbad, CA, USA
Assay: Microscale thermophoresis binding to His-tagged TET1
Settings: MST, HEPES pH 7.5, 50 nM TET1
Procedure: We observed a ligand concentration-dependent decrease in labeled protein fluorescence (Figure 5), and fluorescence measurements during serial dilution were performed to discriminate between binding-specific fluorescence quenching (Figure 6) and loss of fluorescence due to protein precipitation.
For this test, the remainder of tubes 1 to 3 and 14 to 16 prepared in the original binding assay were centrifuged for 10 min at 15,000× g. Thereafter, 10 μL of each sample was removed and mixed with an equal volume of SD-mix (4% SDS and […] (assay buffer)) and heated to 95 °C for 5 min to denature the protein. Subsequently, samples were loaded to standard capillaries, and the fluorescence was detected using a Monolith NT.115. […] The KD value was calculated from ligand concentration-dependent changes in normalized fluorescence (Fnorm) of the TET1 protein after 25 s of thermophoresis, based on the law of mass action using the NT. Affinity Analysis software. […]
Microscale thermophoresis (MST) is a sensitive method that can be used to assess biomolecular interactions and has been utilized to study interactions between a variety of binding partners of different molecular sizes. […] Signals were recorded using 20% MST power and 40% LED power after 25 s. Measurement was repeated two times, and data were analyzed using the NTAnalysis software. […]

T1 sequence (Q8NFU7 whole entry): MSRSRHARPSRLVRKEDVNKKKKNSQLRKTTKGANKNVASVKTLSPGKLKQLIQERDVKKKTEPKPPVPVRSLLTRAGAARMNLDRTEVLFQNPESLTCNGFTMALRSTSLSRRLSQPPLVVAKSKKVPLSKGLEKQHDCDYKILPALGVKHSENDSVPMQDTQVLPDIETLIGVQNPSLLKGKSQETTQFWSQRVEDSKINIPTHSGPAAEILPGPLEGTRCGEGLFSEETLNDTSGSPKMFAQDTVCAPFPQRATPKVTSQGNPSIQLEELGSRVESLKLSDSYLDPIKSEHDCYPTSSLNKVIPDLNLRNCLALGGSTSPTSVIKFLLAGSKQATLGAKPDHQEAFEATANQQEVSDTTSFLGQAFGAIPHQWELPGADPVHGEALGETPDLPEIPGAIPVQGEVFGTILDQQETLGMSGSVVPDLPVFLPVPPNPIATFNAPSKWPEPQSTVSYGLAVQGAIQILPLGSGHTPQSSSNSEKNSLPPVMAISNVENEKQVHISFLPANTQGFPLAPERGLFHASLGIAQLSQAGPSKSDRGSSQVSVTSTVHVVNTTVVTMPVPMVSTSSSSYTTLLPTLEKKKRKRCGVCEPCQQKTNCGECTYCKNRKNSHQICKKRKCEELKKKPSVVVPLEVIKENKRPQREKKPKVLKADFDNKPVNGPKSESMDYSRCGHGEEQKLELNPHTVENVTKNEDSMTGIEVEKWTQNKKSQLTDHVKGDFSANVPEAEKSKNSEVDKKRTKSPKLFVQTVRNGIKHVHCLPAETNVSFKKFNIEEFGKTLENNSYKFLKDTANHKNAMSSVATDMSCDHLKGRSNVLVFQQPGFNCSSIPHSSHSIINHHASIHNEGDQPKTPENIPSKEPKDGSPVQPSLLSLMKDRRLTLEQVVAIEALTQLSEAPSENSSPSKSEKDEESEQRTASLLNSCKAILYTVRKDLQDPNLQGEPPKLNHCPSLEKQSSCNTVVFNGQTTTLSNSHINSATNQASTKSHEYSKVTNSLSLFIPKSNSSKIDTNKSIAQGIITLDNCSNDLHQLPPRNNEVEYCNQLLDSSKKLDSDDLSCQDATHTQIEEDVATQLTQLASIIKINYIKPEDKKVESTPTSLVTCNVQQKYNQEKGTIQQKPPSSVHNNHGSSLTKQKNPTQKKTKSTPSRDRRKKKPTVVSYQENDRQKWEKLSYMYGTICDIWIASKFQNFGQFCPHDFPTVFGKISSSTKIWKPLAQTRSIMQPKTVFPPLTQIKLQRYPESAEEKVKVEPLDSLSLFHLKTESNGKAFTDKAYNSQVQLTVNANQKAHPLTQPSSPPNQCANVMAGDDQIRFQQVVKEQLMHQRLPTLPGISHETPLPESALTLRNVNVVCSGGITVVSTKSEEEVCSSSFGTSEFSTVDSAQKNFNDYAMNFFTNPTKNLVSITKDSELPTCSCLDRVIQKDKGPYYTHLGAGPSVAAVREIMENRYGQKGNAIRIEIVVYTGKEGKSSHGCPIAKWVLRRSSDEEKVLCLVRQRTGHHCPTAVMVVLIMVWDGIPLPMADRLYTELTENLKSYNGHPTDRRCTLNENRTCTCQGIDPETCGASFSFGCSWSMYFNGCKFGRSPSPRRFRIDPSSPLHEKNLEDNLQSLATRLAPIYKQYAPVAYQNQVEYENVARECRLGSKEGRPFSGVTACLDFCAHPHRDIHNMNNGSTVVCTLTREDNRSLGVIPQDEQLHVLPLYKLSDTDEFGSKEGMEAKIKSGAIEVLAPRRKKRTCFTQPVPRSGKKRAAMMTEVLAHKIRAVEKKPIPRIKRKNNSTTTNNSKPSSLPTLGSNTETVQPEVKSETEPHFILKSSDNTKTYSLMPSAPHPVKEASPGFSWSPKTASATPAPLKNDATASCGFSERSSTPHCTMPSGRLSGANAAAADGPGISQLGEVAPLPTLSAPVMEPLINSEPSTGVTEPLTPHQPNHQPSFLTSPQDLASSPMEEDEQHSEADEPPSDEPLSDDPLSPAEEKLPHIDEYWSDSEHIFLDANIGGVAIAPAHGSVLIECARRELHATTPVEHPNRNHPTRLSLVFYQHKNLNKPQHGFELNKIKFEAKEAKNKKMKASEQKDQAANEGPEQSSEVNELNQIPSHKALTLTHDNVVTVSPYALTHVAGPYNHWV

- Kd: 27.2 ± 0.9 µM
Structure (SMILES): Cc1ccc(-n2c(-c3ccc(C(=O)NN)cc3)cc3c2cc(-c2ccc(C(=O)NN)cc2)n3-c2ccc(C)cc2)cc1 [Compound 1]
